Reference: ChEMBL document CHEMBL4196118, “Discovery of MK-8318, a Potent and Selective CRTh2 Receptor Antagonist for the Treatment of Asthma” (ACS Med Chem Lett, 2018)
Calls of active or inactive are those of the source. The calls are words filed in the database; no cut-off is given here.

How the values were obtained:
[1] = Half life in monkey at 1 mg/kg, iv; format: ADME, organism-based, Macaca mulatta; settings: rhesus monkey, in vivo
Ovis aries [2] = assay: Anti-asthmatic activity in sheep lung allergen model assessed as inhibition of antigen-induced airway hyper-responsiveness at 1 mg/kg administered as 4 hrs iv infusion starting at 1 hr prior to antigen challenge measured 24 hrs post antigen challenge; format: functional, organism-based
[3] = AUC in dog at 2 mg/kg, po; format: ADME, organism-based, Canis lupus familiaris; settings: in vivo
[4] = AUC in monkey at 1 mg/kg, iv; format: ADME, organism-based, Macaca mulatta; settings: rhesus monkey, in vivo
[5] = Cmax in rat at 10 mg/kg, po; format: ADME, organism-based; set-up: dose 10 mg/kg, route oral; settings: in vivo
[6] = Tmax in rat at 10 mg/kg, po; format: ADME, organism-based; settings: in vivo
Rattus norvegicus [7] = assay: (§1) Antiinflammatory activity in Brown Norway rat assessed as inhibition of OVA-induced eosinophils levels in BAL cells at 30 mg/kg, po qd for 3 days followed by aerosolized OVA challenge for 30 mins administered 2 hrs post last compound dose on day 3 measured 24 hrs post aerosolized OVA challenge relative to control; format: functional
[8] = Oral bioavailability in rhesus monkey at 10 mg/kg; format: ADME, organism-based, Macaca mulatta; settings: in vivo
[9] = Cmax in dog at 2 mg/kg, po; format: ADME, organism-based, Canis lupus familiaris; set-up: dose 2 mg/kg, route oral; settings: in vivo
Rattus norvegicus [10] = assay: as §1, with “OVA-induced neutrophils” for “OVA-induced eosinophils”, “at 10” for “at 30”; format: functional
[11] = Volume of distribution in monkey at 1 mg/kg, iv; format: ADME, organism-based, Macaca mulatta; settings: rhesus monkey, in vivo
Rattus norvegicus [12] = assay: as §1, with “at 10” for “at 30”; format: functional
[13] = AUC in dog at 1 mg/kg, iv; format: ADME, organism-based, Canis lupus familiaris; settings: in vivo
Cytochrome P450 3A4 = Cytochrome P450 3A4 (Homo sapiens, UniProt P08684); assay: Inhibition of CYP3A4 (unknown origin); format: ADME
Sequence of Cytochrome P450 3A4 (P08684 whole entry): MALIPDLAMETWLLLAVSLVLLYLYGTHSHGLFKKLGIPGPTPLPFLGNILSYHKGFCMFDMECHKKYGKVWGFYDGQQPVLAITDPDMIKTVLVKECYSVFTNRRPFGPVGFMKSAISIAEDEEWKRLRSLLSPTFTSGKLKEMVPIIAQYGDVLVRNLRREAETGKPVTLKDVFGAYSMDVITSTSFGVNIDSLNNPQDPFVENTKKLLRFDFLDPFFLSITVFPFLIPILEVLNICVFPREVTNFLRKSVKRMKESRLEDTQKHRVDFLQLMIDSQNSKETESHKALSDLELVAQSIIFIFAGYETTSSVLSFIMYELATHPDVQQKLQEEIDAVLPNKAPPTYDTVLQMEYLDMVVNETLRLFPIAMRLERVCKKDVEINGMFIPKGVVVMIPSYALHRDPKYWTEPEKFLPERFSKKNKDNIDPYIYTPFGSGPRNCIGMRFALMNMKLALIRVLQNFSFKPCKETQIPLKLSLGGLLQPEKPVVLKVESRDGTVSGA

Rattus norvegicus [14] = assay: as §1, with “OVA-induced neutrophils” for “OVA-induced eosinophils”, “at 3” for “at 30”; format: functional
Rattus norvegicus [15] = assay: as §1, with “total cell” for “eosinophils”; format: functional
[16] = Half life in dog at 1 mg/kg, iv; format: ADME, organism-based, Canis lupus familiaris; settings: in vivo
[17] = Tmax in dog at 2 mg/kg, po; format: ADME, organism-based, Canis lupus familiaris; settings: in vivo
[18] = Volume of distribution in rat at 3 mg/kg, iv; format: ADME, organism-based; settings: in vivo
[19] = molecular target: T1, Prostaglandin D2 receptor 2 (Homo sapiens, UniProt Q9Y5Y4)
T1 sequence (Q9Y5Y4 whole entry): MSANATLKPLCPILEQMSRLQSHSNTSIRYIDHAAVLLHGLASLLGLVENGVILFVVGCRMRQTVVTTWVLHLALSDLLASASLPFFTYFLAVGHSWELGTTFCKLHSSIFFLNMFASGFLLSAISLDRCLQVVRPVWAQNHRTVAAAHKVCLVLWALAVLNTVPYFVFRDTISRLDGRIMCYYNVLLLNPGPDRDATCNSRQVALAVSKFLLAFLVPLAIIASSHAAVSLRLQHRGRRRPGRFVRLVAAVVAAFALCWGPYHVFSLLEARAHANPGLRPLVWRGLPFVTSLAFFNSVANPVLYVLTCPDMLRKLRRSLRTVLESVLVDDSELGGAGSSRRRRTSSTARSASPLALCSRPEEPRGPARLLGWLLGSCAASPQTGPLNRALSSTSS

[20] = Volume of distribution in dog at 1 mg/kg, iv; format: ADME, organism-based, Canis lupus familiaris; settings: in vivo
Cytochrome P450 2C9 = Cytochrome P450 2C9 (Homo sapiens, UniProt P11712); assay: Inhibition of CYP2C9 (unknown origin); format: ADME
Sequence of Cytochrome P450 2C9 (P11712 whole entry): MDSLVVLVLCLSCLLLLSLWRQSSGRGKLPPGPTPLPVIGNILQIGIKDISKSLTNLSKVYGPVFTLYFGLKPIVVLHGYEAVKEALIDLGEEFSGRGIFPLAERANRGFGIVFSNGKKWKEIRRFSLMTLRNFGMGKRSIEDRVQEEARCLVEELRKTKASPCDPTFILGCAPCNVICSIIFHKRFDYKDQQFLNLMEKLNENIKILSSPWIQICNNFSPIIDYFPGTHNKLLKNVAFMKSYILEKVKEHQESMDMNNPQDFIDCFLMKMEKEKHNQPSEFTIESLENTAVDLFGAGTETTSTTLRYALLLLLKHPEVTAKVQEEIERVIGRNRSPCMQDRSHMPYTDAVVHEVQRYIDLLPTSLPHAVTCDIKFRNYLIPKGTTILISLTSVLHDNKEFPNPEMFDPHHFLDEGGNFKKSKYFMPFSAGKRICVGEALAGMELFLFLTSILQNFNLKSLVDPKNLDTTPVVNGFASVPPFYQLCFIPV

Rattus norvegicus [21] = assay: as §1, with “at 3” for “at 30”; format: functional
[22] = Clearance in dog plasma at 1 mg/kg, iv; format: ADME, organism-based, Canis lupus familiaris
Cytochrome P450 2D6 = Cytochrome P450 2D6 (Homo sapiens, UniProt P10635); assay: Inhibition of CYP2D6 (unknown origin); format: ADME
Sequence of Cytochrome P450 2D6 (P10635 whole entry): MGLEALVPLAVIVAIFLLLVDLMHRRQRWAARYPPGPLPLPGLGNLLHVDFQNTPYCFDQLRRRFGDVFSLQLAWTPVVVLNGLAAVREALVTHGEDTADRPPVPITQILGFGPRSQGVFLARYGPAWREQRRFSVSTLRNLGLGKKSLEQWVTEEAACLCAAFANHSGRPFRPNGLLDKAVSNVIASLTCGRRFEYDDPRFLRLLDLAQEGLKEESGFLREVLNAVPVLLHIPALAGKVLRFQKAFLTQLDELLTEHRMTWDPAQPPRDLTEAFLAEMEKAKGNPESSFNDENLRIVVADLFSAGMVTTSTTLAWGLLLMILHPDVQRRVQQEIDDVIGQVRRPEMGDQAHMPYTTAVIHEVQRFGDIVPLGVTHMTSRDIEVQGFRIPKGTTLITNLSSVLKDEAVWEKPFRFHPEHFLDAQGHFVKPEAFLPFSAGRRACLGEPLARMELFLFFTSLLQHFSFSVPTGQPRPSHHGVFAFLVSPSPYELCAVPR

Rattus norvegicus [23] = assay: as §1, with “OVA-induced total cell” for “OVA-induced eosinophils”, “at 10” for “at 30”; format: functional
[24] = AUC in rhesus monkey at 10 mg/kg, po; format: ADME, organism-based, Macaca mulatta; settings: in vivo
[25] = AUC (0 to 6 hrs) in rat at 3 mg/kg, iv; format: ADME, organism-based; set-up: time < 6 hr, dose 3 mg/kg, route intravenous; settings: in vivo
[26] = Tmax in rhesus monkey at 10 mg/kg, po; format: ADME, organism-based, Macaca mulatta; settings: in vivo
[27] = Cmax in rhesus monkey at 10 mg/kg, po; format: ADME, organism-based, Macaca mulatta; set-up: dose 10 mg/kg, route oral; settings: in vivo
[28] = molecular target: T1, Prostaglandin D2 receptor 2; remark: listed apart in the source
Description: Antagonist activity at human CRTh2 expressed in CHOK1 cells assessed as inhibition of PGD2-induced beta-arrestin recruitment incubated for 30 mins followed by PGD2 stimulation measured after 60 mins by PathHunter based chemiluminescence assay

[29] = molecular target: T2, Nuclear receptor subfamily 1 group I member 2 (Homo sapiens, UniProt O75469); assay: Activation of PXR (unknown origin)
T2 sequence (O75469 whole entry): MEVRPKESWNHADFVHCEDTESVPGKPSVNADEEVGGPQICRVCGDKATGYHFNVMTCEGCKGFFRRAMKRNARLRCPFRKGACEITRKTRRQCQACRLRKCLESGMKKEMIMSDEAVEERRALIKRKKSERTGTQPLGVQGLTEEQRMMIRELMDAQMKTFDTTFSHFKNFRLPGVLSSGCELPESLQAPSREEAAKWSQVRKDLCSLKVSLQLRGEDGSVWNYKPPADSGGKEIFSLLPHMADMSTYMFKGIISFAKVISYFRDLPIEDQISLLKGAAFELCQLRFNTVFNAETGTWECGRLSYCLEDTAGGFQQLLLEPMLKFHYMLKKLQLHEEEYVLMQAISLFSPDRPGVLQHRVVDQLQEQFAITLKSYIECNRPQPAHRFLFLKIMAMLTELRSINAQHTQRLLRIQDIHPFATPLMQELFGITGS

[30] = AUC in rat at 10 mg/kg, po; format: ADME, organism-based; settings: in vivo
Rattus norvegicus [31] = assay: as §1, with “neutrophils” for “eosinophils”; format: functional
Ovis aries [32] = assay: Anti-asthmatic activity in sheep lung allergen model assessed as inhibition of antigen-induced late airway response at 1 mg/kg administered as 4 hrs iv infusion starting at 1 hr prior to antigen challenge measured 4 to 8 hrs post antigen challenge; format: functional, organism-based
[33] = AUC in rat at 3 mg/kg, iv; format: ADME, organism-based; settings: in vivo
[34] = Clearance in rat plasma at 3 mg/kg, iv; format: ADME, organism-based
[35] = molecular target: T1, Prostaglandin D2 receptor 2; assay: biochemical
Description: Displacement of [3H]PGD2 from human CRTh2 expressed in HEK cell membranes after 60 mins by scintillation counting method

[36] = Clearance in monkey plasma at 1 mg/kg, iv; format: ADME, organism-based, Macaca mulatta; settings: rhesus monkey
[37] = Oral bioavailability in dog at 2 mg/kg; format: ADME, organism-based, Canis lupus familiaris; settings: in vivo
[38] = Oral bioavailability in rat at 10 mg/kg; format: ADME, organism-based; settings: in vivo
[39] = Half life in rat at 3 mg/kg, iv; format: ADME, organism-based; settings: in vivo
Rattus norvegicus [40] = assay: as §1, with “OVA-induced total cell” for “OVA-induced eosinophils”, “at 3” for “at 30”; format: functional

With O=C(O)CCC(=O)N(C1CC1)[C@H]1c2cc(F)ccc2N(C(=O)c2ccc(OC(F)(F)F)cc2)[C@H]2CCC[C@H]21 the half-life [1] was 12.9 h, the inhibition (Ovis aries [2]) was “Active” and the AUC [3] was 8.51 µM·h. The AUC [4] was 1.92 µM·h, the Cmax [5] was 2070 nM and the Tmax [6] was 0.58 h. It also gave an inhibition in vivo at 30 mg/kg (Rattus norvegicus [7]) of 58%, a bioavailability [8] of 28% and a Cmax [9] of 2470 nM. For the same compound, the inhibition in vivo at 10 mg/kg (Rattus norvegicus [10]) was 49%, the Vd [11] was 5.8 L/kg and the inhibition in vivo at 10 mg/kg (Rattus norvegicus [12]) was 65%. For the same compound, the AUC [13] was 3.46 µM·h, the “inhibition (INH)” value (Cytochrome P450 3A4) was “Not Active” and the inhibition in vivo at 3 mg/kg (Rattus norvegicus [14]) was 56%. It also gave an inhibition in vivo at 30 mg/kg (Rattus norvegicus [15]) of 78%, a half-life [16] of 10.4 h and a Tmax [17] of 0.42 h. The Vd [18] was 5.8 L/kg, the IC50 [19] was 8 nM and the Vd [20] was 2.4 L/kg. For the same compound, the “inhibition (INH)” value (Cytochrome P450 2C9) was “Not Active”, the inhibition in vivo at 3 mg/kg (Rattus norvegicus [21]) was 36% and the clearance [22] was 9.4 mL/min/kg. For the same compound, the “inhibition (INH)” value (Cytochrome P450 2D6) was “Not Active”, the inhibition in vivo at 10 mg/kg (Rattus norvegicus [23]) was 68% and the AUC [24] was 6.76 µM·h. It also gave an AUC(0-t) at 6 h [25] of 3.35 µM·h, a Tmax [26] of 0.42 h and a Cmax [27] of 5690 nM. The IC50 [28] was 3.5 nM, the Activity [29] was “Not Active” and the AUC [30] was 6.77 µM·h. The inhibition in vivo at 30 mg/kg (Rattus norvegicus [31]) was 77%, the inhibition (Ovis aries [32]) was “Active” and the AUC [33] was 3.4 µM·h. It also gave a clearance [34] of 29.1 mL/min/kg, a Ki [35] of 5 nM and a clearance [36] of 16.4 mL/min/kg. The bioavailability [37] was 121%, the bioavailability [38] was 61% and the half-life [39] was 7.5 h. It also gave an inhibition in vivo at 3 mg/kg (Rattus norvegicus [40]) of 52%.
